Laboratory results reported in paper PMC8269058, “The Odorant-Binding Proteins of the Spider Mite Tetranychus urticae” (International Journal of Molecular Sciences, 2021).

Assays:
TurtOBP1 [1] = assay: fluorescent probe titration (blue shift) with purified recombinant protein; format: binding, Tetranychus urticae
TurtOBP4 [2] = assay: as above; format: binding, Tetranychus urticae
TurtOBP1 [3] = assay: competitive fluorescence binding assay, displacement of 1-NPN; parameters: species or system Tetranychus urticae
TurtOBP4 [4] = assay: as above; parameters: species or system Tetranychus urticae

Kd (TurtOBP1 [3]) [µM]	Kd (TurtOBP4 [4]) [µM]	Structure (SMILES)	Kd (TurtOBP1 [1]) [µM]	Kd (TurtOBP4 [2]) [µM]
–	–	c1ccc(Nc2cccc3ccccc23)cc1 [1-NPN]	9.7	3.5
9.8	6.4	COc1cc(/C=C/C=O)ccc1O [coniferyl aldehyde]	–	–
